The source of these data is US8735424B2 (Novartis AG, priority 2008, dated 2014).

One test addresses PIM2 (Homo sapiens, UniProt Q9P1W9). The test is described as follows: Pim2 ATP depletion assay. The conditions noted are these: 4 μM ATP, 5 nM PIM2. The test is classed as biochemical. The procedure: The activity of PIM2 is measured using a luciferase-luciferin based ATP detection reagent to quantify ATP depletion resulting from kinase-catalyzed phosphoryl transfer to a peptide substrate. Compounds to be tested are dissolved in 100% DMSO and directly distributed into white 384-well plates at 0.5 μl per well. To start the reaction, 10 μl of 10 nM Pim2 kinase and 20 μM BAD peptide (RSRHSSYPAGT-OH) in assay buffer (50 mM HEPES pH 7.5, 5 mM MgCl2, 1 mM DTT, 0.05% BSA) is added into each well. After 15 minutes, 10 μl of 8 μM ATP in assay buffer is added. Final assay concentrations are 5 nM PIM2, 4 μM ATP, 10 μM BAD peptide and 2.5% DMSO. The reaction is performed until approximately 50% of the ATP is depleted, then stopped with the addition of 20 μl KinaseGlo Plus (Promega Corporation) solution. The stopped reaction is incubated for 10 minutes and the remaining ATP detected via luminescence on the Victor2 (Perkin Elmer).

In a further test the target is PIM3 (Homo sapiens, UniProt Q86V86). The test is described as follows: Pim3 ATP depletion assay. The test is classed as biochemical. The conditions noted are these: 40 μM ATP. Here is the method: The activity of PIM3 is measured using a luciferase-luciferin based ATP detection reagent to quantify ATP depletion resulting from kinase-catalyzed phosphoryl transfer to a peptide substrate. Compounds to be tested are dissolved in 100% DMSO and directly distributed into white 384-well plates at 0.5 μl per well. To start the reaction, 10 μl of 10 nM Pim3 kinase and 200 μM BAD peptide (RSRHSSYPAGT-OH) in assay buffer (50 mM HEPES pH 7.5, 5 mM MgCl2, 1 mM DTT, 0.05% BSA) is added into each well. After 15 minutes, 10 μl of 80 μM ATP in assay buffer is added. Final assay concentrations are 5 nM PIM1, 40 μM ATP, 100 μM BAD peptide and 2.5% DMSO. The reaction is performed until approximately 50% of the ATP is depleted, then stopped by the addition of 20 μl KinaseGlo Plus (Promega Corporation) solution. The stopped reaction is incubated for 10 minutes and the remaining ATP detected via luminescence on the Victor2 (Perkin Elmer).

The target in another test is PIM1 (Homo sapiens, UniProt P11309). As to the kind of experiment: Pim1 ATP depletion assay. The test is classed as biochemical. The conditions noted are these: 20 μM ATP, 2.5 nM PIM1. The procedure: The activity of PIM1 is measured using a luciferase-luciferin based ATP detection reagent to quantify ATP depletion resulting from kinase-catalyzed phosphoryl transfer to a peptide substrate. Compounds to be tested are dissolved in 100% DMSO and directly distributed into white 384-well plates at 0.5 μl per well. To start the reaction, 10 μl of 5 nM Pim1 kinase and 80 μM BAD peptide (RSRHSSYPAGT-OH) in assay buffer (50 mM HEPES pH 7.5, 5 mM MgCl2, 1 mM DTT, 0.05% BSA) is added into each well. After 15 minutes, 10 μl of 40 μM ATP in assay buffer is added. Final assay concentrations are 2.5 nM PIM1, 20 μM ATP, 40 μM BAD peptide and 2.5% DMSO. The reaction is performed until approximately 50% of the ATP is depleted, then stopped with the addition of 20 μl KinaseGlo Plus (Promega Corporation) solution. The stopped reaction is incubated for 10 minutes and the remaining ATP detected via luminescence on the Victor2 (Perkin Elmer). […] IC50, the half maximal inhibitory concentration, represents the concentration of a test compound that is required for 50% inhibition of its target in vitro.

The next test has as its system KMS11 cells. The test is described as follows: Cell proliferation assay (CellTiter-Glo). The test is classed as cell-based. The conditions noted are these: KMS-11, 72 h; KMS11 human myeloma cell line, 3 days. The procedure:
KMS11 (human myeloma cell line), were cultured in IMDM supplemented with 10% FBS, sodium pyruvate and antibiotics. Cells were plated in the same medium at a density of 2000 cells per well into 96 well tissue culture plates, with outside wells vacant, on the day of assay. MM1.s (human myeloma cell line), were cultured in RPMI1640 supplemented with 10% FBS, sodium pyruvate and antibiotics. Cells were plated in the same medium at a density of 5000 cells per well into 96 well tissue culture plates, with outside wells vacant, on the day of assay.
Test compounds supplied in DMSO were diluted into DMSO at 500 times the desired final concentrations before dilution into culture media to 2 times final concentrations. Equal volumes of 2× compounds were added to the cells in 96 well plates and incubated at 37° C. for 3 days.
After 3 days plates were equilibrated to room temperature and equal volume of CellTiter-Glow Reagent (Promega) was added to the culture wells. The plates were agitated briefly and luminescent signal was measured with luminometer. The percent inhibition of the signal seen in cells treated with DMSO alone vs. cells treated with control compound was calculated and used to determine EC50 values (i.e., the concentration of a test compound that is required to obtain 50% of the maximum effect in the cells) for tested compounds, as shown in Example 41.
On the technique in general: ATP-based viability assays read luminescence as a measure of living cells.

PIM1, sequence (P11309 whole entry): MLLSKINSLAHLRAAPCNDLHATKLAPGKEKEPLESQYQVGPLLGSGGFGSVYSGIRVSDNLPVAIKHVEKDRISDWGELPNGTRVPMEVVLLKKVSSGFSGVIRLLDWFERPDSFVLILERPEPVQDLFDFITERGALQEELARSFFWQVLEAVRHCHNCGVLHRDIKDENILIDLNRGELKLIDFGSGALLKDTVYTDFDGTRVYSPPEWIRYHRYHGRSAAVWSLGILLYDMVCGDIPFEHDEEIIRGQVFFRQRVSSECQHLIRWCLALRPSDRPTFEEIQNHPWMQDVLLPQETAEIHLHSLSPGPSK
PIM2, sequence (Q9P1W9 whole entry): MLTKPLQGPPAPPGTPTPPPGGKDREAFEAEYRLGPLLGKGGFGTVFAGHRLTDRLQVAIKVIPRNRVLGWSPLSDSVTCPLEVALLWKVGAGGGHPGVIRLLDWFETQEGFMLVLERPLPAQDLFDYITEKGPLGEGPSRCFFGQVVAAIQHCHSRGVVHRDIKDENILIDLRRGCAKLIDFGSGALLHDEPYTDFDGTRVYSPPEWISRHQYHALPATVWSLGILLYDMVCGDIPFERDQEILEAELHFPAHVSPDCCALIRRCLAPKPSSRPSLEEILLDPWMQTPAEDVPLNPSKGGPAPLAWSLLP

Turning to `Cc1cc(-c2ccnc3cnc(-c4nc(-c5c(F)cccc5F)ccc4N)cc23)cc(N)n1` [Example 3, 4-(6-(3-amino-6-(2,6-difluorophenyl)pyridin-2-yl)-1,7-naphthyridin-4-yl)-6-methylpyridin-2-amine], the IC50 – broadly, the concentration at which inhibition is half-maximal – at PIM2 turned out to be 809 nM; at PIM3, 25 nM; against PIM1, 15 nM.
With `Cc1cc(-c2ccnc3cnc(-c4nc(-c5cc(C(=O)NC(C)C)ccc5F)ccc4N)cc23)cc(N)n1` [Example 4, 3-(5-amino-6-(4-(2-amino-6-methylpyridin-4-yl)-1,7-naphthyridin-6-yl)pyridin-2-yl)-4-fluoro-N-isopropylbenzamide], the 50% inhibitory concentration (IC50) at PIM2 came to 350 nM; on PIM3, 40 nM; against PIM1 it was 24 nM.
In the case of `N[C@H]1CCCN(c2ccnc3ccc(-c4nccc(-c5c(F)cccc5F)n4)cc23)C1` [Example 29], the figures for the IC50 against PIM2, against PIM3 and against PIM1 were 132 nM, 8 nM and 6 nM, respectively.
Take `CS(=O)(=O)c1cccc(-c2ccc(N)c(-c3cc4c(N5CCC[C@H](N)C5)ccnc4cn3)n2)c1` [Example 22, (S)-2-(4-(3-aminopiperidin-1-yl)-1,7-naphthyridin-6-yl)-6-(3-(methylsulfonyl)phenyl)pyridin-3-amine]: the concentration for half-maximal inhibition (IC50) turned out to be 280 nM on PIM2, 10 nM on PIM3 and 4 nM against PIM1.
Turning to `CN(C)C(=O)c1ccc(F)c(-c2ccc(N)c(-c3cc4c(N5CCC[C@H](N)C5)ccnc4cn3)n2)c1` [Example 16, (S)-3-(5-amino-6-(4-(3-aminopiperidin-1-yl)-1,7-naphthyridin-6-yl)pyridin-2-yl)-4-fluoro-N,N-dimethylbenzamide], the half-maximal inhibitory concentration (IC50) was determined as 120 nM on PIM2, 41 nM on PIM3 and 10 nM at PIM1. Moreover, in the test with KMS11 cells, the EC50 (usually the concentration at which the effect is half-maximal) was 4000 nM.
Taken in the same sequence, the figures for `Nc1ccc(-c2ccccc2)nc1-c1cc2c(N3CCC[C@H](N)C3)ccnc2cn1` [Example 20, (S)-2-(4-(3-aminopiperidin-1-yl)-1,7-naphthyridin-6-yl)-6-phenylpyridin-3-amine] were 62 nM, 4 nM, 3 nM and 4200 nM.
For `Nc1ccc(-c2cccc(F)c2F)nc1-c1cc2c(N3CCC[C@H](N)C3)ccnc2cn1` [Example 18, (S)-2-(4-(3-aminopiperidin-1-yl)-1,7-naphthyridin-6-yl)-6-(2,3-difluorophenyl)pyridin-3-amine], the concentration for half-maximal inhibition (IC50) worked out at 71 nM on PIM2, 4 nM at PIM3 and 2 nM against PIM1. In the test with KMS11 cells, this compound registered an EC50 of 4900 nM.
Regarding `N[C@H]1CCCN(c2ccnc3ccc(-c4cccc(-c5nccs5)n4)cc23)C1` [Example 27, (S)-1-(6-(6-(thiazol-2-yl)pyridin-2-yl)quinolin-4-yl)piperidin-3-amine], the IC50 was 45 nM against PIM2, 10 nM against PIM3 and 10 nM against PIM1. In the test with KMS11 cells, this compound had an EC50 of 940 nM.
Take `C[C@@H]1C[C@H](N)CN(c2ccnc3ccc(-c4cccc(-c5c(F)cccc5F)n4)cc23)C1` [Example 34, (3S,5R)-1-(6-(6-(2,6-difluorophenyl)pyridin-2-yl)quinolin-4-yl)-5-methylpiperidin-3-amine]: the results for the 50% inhibitory concentration (IC50) at PIM2, against PIM3 and against PIM1 were 33 nM, 7 nM and 2 nM, respectively.
For `N[C@@H]1CN(c2ccnc3ccc(-c4cccc(-c5nccs5)n4)cc23)CC[C@H]1F` [Example 33, (3R,4R)-4-fluoro-1-(6-(6-(thiazol-2-yl)pyridin-2-yl)quinolin-4-yl)piperidin-3-amine], in that order: 244 nM, 21 nM and 22 nM.
Consider `Nc1ccc(-c2cccc(S(N)(=O)=O)c2)nc1-c1cc2c(N3CCC[C@H](N)C3)ccnc2cn1` [Example 21, (S)-3-(5-amino-6-(4-(3-aminopiperidin-1-yl)-1,7-naphthyridin-6-yl)pyridin-2-yl)benzenesulfonamide], for which the IC50 against PIM2 stood at 160 nM; against PIM3, 8 nM; against PIM1 it was 2 nM.
For `N[C@@H]1CN(c2ccnc3ccc(-c4cccc(-c5nccs5)n4)cc23)CC[C@H]1O` [Example 36, (3R,4R)-3-amino-1-(6-(6-(thiazol-2-yl)pyridin-2-yl)quinolin-4-yl)piperidin-4-ol], in that order: 75 nM, 9 nM and 9 nM.
For `N[C@H]1CCCN(c2ccnc3ccc(-c4nccc(-c5ccccc5F)n4)cc23)C1` [Example 30], in that order: 347 nM, 20 nM and 8 nM.
Taken in the same sequence, the figures for `N[C@H]1CCCN(c2ccnc3ccc(-c4cccc(-c5c(F)cccc5F)n4)cc23)C1` [Example 26, (S)-1-(6-(6-(2,6-difluorophenyl)pyridin-2-yl)quinolin-4-yl)piperidin-3-amine] were 331 nM, 26 nM and 16 nM.
In the case of `N[C@@H]1CN(c2ccnc3ccc(-c4cccc(-c5c(F)cccc5F)n4)cc23)CC[C@H]1F` [Example 32, (3R,4R)-1-(6-(6-(2,6-difluorophenyl)pyridin-2-yl)quinolin-4-yl)-4-fluoropiperidin-3-amine], the figures for the IC50 against PIM2, at PIM3 and at PIM1 were 604 nM, 42 nM and 27 nM, respectively.
`CC(C)NC(=O)c1ccc(F)c(-c2ccc(N)c(-c3cc4c(N5CCC[C@H](N)C5)c(F)cnc4cn3)n2)c1` [Example 2, (S)-3-(5-amino-6-(4-(3-aminopiperidin-1-yl)-3-fluoro-1,7-naphthyridin-6-yl)pyridin-2-yl)-4-fluoro-N-isopropylbenzamide]: the half-inhibitory concentration (IC50) at PIM2 was 258 nM; against PIM3, 37 nM; against PIM1, 18 nM.
`Nc1ccc(-c2ccc(F)cc2F)nc1-c1cc2c(N3CCC[C@H](N)C3)ccnc2cn1` [Example 17, (S)-2-(4-(3-aminopiperidin-1-yl)-1,7-naphthyridin-6-yl)-6-(2,4-difluorophenyl)pyridin-3-amine]: the IC50 was 151 nM at PIM2, 13 nM on PIM3 and 4 nM at PIM1.
With `COc1cccc(-c2ccc(N)c(-c3cc4c(N5CCC[C@H](N)C5)ccnc4cn3)n2)n1` [Example 14, (S)-6-(4-(3-aminopiperidin-1-yl)-1,7-naphthyridin-6-yl)-6′-methoxy-2,2′-bipyridin-5-amine], the IC50 on PIM2 came to 132 nM; against PIM3, 8 nM; at PIM1 it was 6 nM.
In the case of `N[C@@H]1CN(c2ccnc3ccc(-c4cccc(-c5c(F)cccc5F)n4)cc23)CC[C@H]1O` [Example 35, (3R,4R)-3-amino-1-(6-(6-(2,6-difluorophenyl)pyridin-2-yl)quinolin-4-yl)piperidin-4-ol], the IC50 at PIM2 is 373 nM; against PIM3 it was 21 nM; against PIM1, 19 nM.
